Assay results: patent US8410141B2, “Insecticidal arylpyrrolines” (Bayer Cropscience AG, priority 2009, dated 2013)

Columns and labels:
Type in all cases: in vivo
[1] = test system: green peach aphid (Myzus persicae); test: Myzus test, oral (MYZUPE O); settings: 100 g/ha; aphids suck on preparation; after 5 days
Protocol: Solvent: 80 parts by weight acetone
To produce a suitable preparation of active compound, 1 part by weight of active compound ist mixed with the stated amount of solvent and emulsifier, and the concentrate is diluted with emulsifier-containing water to the desired concentration. Containers are infested with a mixed population of the green peach aphid (Myzus persicae), the aphids suck on a preparation of the active compound at the desired concentration.
After 5 days mortality in % is determined. 100% means that all aphids have been killed; 0% means that none of the aphids have been killed.

[2] = test system: fall armyworm larvae (Spodoptera frugiperda); test: Spodoptera frugiperda test, SPODFR spray application; settings: 100 g/ha; maize leaf sections sprayed; after 7 days
Description: (§1) Solvent: 78.0 parts by weight acetone
(§2) • 1.5 parts by weight dimethylformamide Emulsifier: 0.5 parts by weight alkylarylpolyglycolether
To produce a suitable preparation of the active compound, 1 part by weight of active compound is mixed with the stated amount of solvent and emulsifier, and the concentrate is dilutes with emulsifier-containing water to the desired concentration. Maize (Zea mais) leaf sections are sprayed with a preparation of the active ingredient of the desired concentration. Once dry, the leaf sections are infested with fall armyworm larvae (Spodoptera frugiperda).
After 7 days mortality in % is determined. 100% means that all caterpillars have been killed and 0% means that none of the caterpillars have been killed.

[3] = test system: mustard beetle larvae (Phaedon cochleariae); test: Phaedon cochleariae test, PHAECO spray application; settings: 100 g/ha; Chinese cabbage leaf-disks sprayed; after 7 days
Protocol: Solvent: 78.0 parts by weight of acetone
• 1.5 parts by weight of dimethylformamide Emulsifier: 0.5 parts by weight of alkylaryl polyglycolether
(§3) To produce a suitable preparation of active compound, 1 part by weight of active compound is mixed with the stated amount of solvent and emulsifier, and the concentrate is diluted with emulsifier-containing water to the desired concentration.
Chinese cabbage (Brassica pekinesis) leaf-disks are sprayed with a preparation of the active ingredient of the desired concentration. Once dry, the leaf disks are infested with mustard beetle larvae (Phaedon cochleariae).
After 7 days mortality in % is determined. 100% means that all beetle larvae have been killed and 0% means that none of the beetle larvae have been killed.

[4] = test system: two spotted spidermite (Tetranychus urticae), OP-resistant; test: Tetranychus urticae test, OP-resistant (TETRUR spray application); settings: 100 g/ha; French beans sprayed; all stages; after 6 days
Protocol: as §1, §2
as §3, with “concentration. French beans (Phaseolus vulgaris) which are heavily infested with all stages of the two spotted spidermite (Tetranychus urticae), are sprayed with a preparation of the active ingredient at the desired concentration.” for “concentration.”
After 6 days mortality in % is determined. 100% means that all spider mites have been killed and 0% means that none of the spider mites have been killed.

CN(C)c1c(Cl)cc(C2(C(F)(F)F)CN=C(c3ccc(-n4cncn4)c(C#N)c3)C2)cc1Cl (stereo not shown) [1-3]
mortality [1]: 100% | mortality [2]: 83% | mortality [3]: 100% | mortality [4]: 100%
